Experimental data taken from patent publication US8927538B2, “Carbazole linked pyrrolo[2,1-c][1,4]benzodiazefine hybrids as potential anticancer agents and process for the preparation thereof” (Council of Scientific & Industrial Research, priority 2010, dated 2015).

What was measured:
Format in all cases: cell-based, human
CCRF-CEM = assay: NCI SRB cytotoxicity, CCRF-CEM; details: Leukemia CCRF-CEM, 48 hrs exposure
Excerpt: (§1) The C8-linked carbazole-PBD hybrids have been tested against sixty human tumour cell lines derived from nine cancer types (leukemia, non-small cell lung cancer, colon cancer, CNS cancer, melanoma, ovarian cancer, renal cancer, prostate cancer and breast cancer) as per NCI protocol, For each compound, dose response curves for individual cell lines have been measured at a minimum of five concentrations at 10 fold dilutions. A protocol of 48 hrs continuous drug exposure has been used, and a sulforhodamine B (SRB) protein assay was used to estimate cell viability or growth. The concentration for 50% cell growth inhibition (GI50), total cell growth inhibition (TGI, 0% growth) and 50% cell death (LC50, […]) compared with the control has been calculated (Table-3).
(§2) Compounds 6c and 14a have been evaluated for in vitro cytotoxicity in sixty cell lines from nine human cancer types of lung (Hop-62, NCI-H226, NCI-H522), leukemia (K-562, SR), colon (HCT-116, HCT-15, HCC-2998), CNS(SF-539), melanoma (SK-MEL-5, UACC-62, M14), ovarian (IGROV1), renal (A498), prostate (PC3) breast (BT-549, MDA-MB-435, HS578T) origin. The results are expressed as percent of cell growth determined relative to that of untreated control cells (Table 1).

SK-MEL-28 = assay: NCI SRB cytotoxicity, SK-MEL-28; details: Melanoma SK-MEL-28, 48 hrs exposure
Excerpt: as §1, §2

NCI-H522 = assay: NCI SRB cytotoxicity, NCI-H522; details: Non-small cell lung NCI-H522, 48 hrs exposure
Excerpt: as §1, §2

HCT-116 = assay: NCI SRB cytotoxicity, HCT-116; details: Colon HCT-116, 48 hrs exposure
Excerpt: as §1, §2

CNS cancer cell lines = assay: NCI SRB cytotoxicity, CNS panel; details: average of six to eight cell lines
Excerpt: as §1, §2

SNB-75 = assay: NCI SRB cytotoxicity, SNB-75; details: CNS SNB-75, 48 hrs exposure
Excerpt: as §1, §2

786-0 = assay: NCI SRB cytotoxicity, 786-0; details: Renal 786-0, 48 hrs exposure
Excerpt: as §1, §2

SNB-19 = assay: NCI SRB cytotoxicity, SNB-19; details: CNS SNB-19, 48 hrs exposure
Excerpt: as §1, §2

HT 29 = assay: NCI SRB cytotoxicity, HT 29; details: Colon HT 29, 48 hrs exposure
Excerpt: as §1, §2

[1] = system: Leukemia cancer cell lines; assay: NCI SRB cytotoxicity, leukemia panel; details: average of six to eight cell lines
Excerpt: as §1, §2

SR = assay: NCI SRB cytotoxicity, SR; details: Leukemia SR, 48 hrs exposure
Excerpt: as §1, §2

ACHN = assay: NCI SRB cytotoxicity, ACHN; details: Renal ACHN, 48 hrs exposure
Excerpt: as §1, §2

UACC-62 = assay: NCI SRB cytotoxicity, UACC-62; details: Melanoma UACC-62, 48 hrs exposure
Excerpt: as §1, §2

SW-620 = assay: NCI SRB cytotoxicity, SW-620; details: Colon SW-620, 48 hrs exposure
Excerpt: as §1, §2

EKVX = assay: NCI SRB cytotoxicity, EKVX; details: Non-small cell lung EKVX, 48 hrs exposure
Excerpt: as §1, §2

SK-MEL-2 = assay: NCI SRB cytotoxicity, SK-MEL-2; details: Melanoma SK-MEL-2, 48 hrs exposure
Excerpt: as §1, §2

[2] = system: prostate cancer cell lines; assay: NCI SRB cytotoxicity, prostate panel; details: average of cell lines
Excerpt: as §1, §2

HOP-92 = assay: NCI SRB cytotoxicity, HOP-92; details: Non-small cell lung HOP-92, 48 hrs exposure
Excerpt: as §1, §2

SF-268 = assay: NCI SRB cytotoxicity, SF-268; details: CNS SF-268, 48 hrs exposure
Excerpt: as §1, §2

OVCAR-5 = assay: NCI SRB cytotoxicity, OVCAR-5; details: Ovarian OVCAR-5, 48 hrs exposure
Excerpt: as §1, §2

LOX IMVI = assay: NCI SRB cytotoxicity, LOX IMVI; details: Melanoma LOX IMVI, 48 hrs exposure
Excerpt: as §1, §2

M14 = assay: NCI SRB cytotoxicity, M14; details: Melanoma M14, 48 hrs exposure
Excerpt: as §1, §2

U251 = assay: NCI SRB cytotoxicity, U251; details: CNS U251, 48 hrs exposure
Excerpt: as §1, §2

NCI-H226 = assay: NCI SRB cytotoxicity, NCI-H226; details: Non-small cell lung NCI-H226, 48 hrs exposure
Excerpt: as §1, §2

PC-3 = assay: NCI SRB cytotoxicity, PC-3; details: Prostate PC-3, 48 hrs exposure
Excerpt: as §1, §2

DU-145 = assay: NCI SRB cytotoxicity, DU-145; details: Prostate DU-145, 48 hrs exposure
Excerpt: as §1, §2

MOLT-4 = assay: NCI SRB cytotoxicity, MOLT-4; details: Leukemia MOLT-4, 48 hrs exposure
Excerpt: as §1, §2

A549/ATCC = assay: NCI SRB cytotoxicity, A549/ATCC; details: Non-small cell lung A549/ATCC, 48 hrs exposure
Excerpt: as §1, §2

K-562 = assay: NCI SRB cytotoxicity, K-562; details: Leukemia K-562, 48 hrs exposure
Excerpt: as §1, §2

MCF7 = assay: NCI SRB cytotoxicity, MCF7; details: Breast MCF7, 48 hrs exposure
Excerpt: as §1, §2

Structure (SMILES): COc1cc2c(cc1OCCCN1CCN(CCCn3c4ccccc4c4ccccc43)CC1)N=C[C@@H]1CCCN1C2=O [Compound 14a]
- GI50 (CCRF-CEM): 0.02 µM
- GI50 (SK-MEL-28): 0.06 µM
- GI50 (NCI-H522): < 0.01 µM
- GI50 (HCT-116): 0.06 µM
- Log10 GI50 (CNS cancer cell lines): −6.96 mol/L
- Log10 LC50 (concentration causing 50% lethality) (CNS cancer cell lines): −5.67 mol/L
- GI50 (SNB-75): 0.15 µM
- GI50 (786-0): 0.19 µM
- GI50 (SNB-19): 0.21 µM
- GI50 (HT 29): 0.05 µM
- Log10 GI50 [1]: −7.55 mol/L
- GI50 (SR): 0.03 µM
- GI50 (ACHN): 0.25 µM
- GI50 (UACC-62): 0.15 µM
- GI50 (SW-620): 0.04 µM
- GI50 (EKVX): 0.14 µM
- GI50 (SK-MEL-2): 0.19 µM
- Log10 GI50 [2]: −7.42 mol/L
- Log10 LC50 (concentration causing 50% lethality) [2]: −5.59 mol/L
- GI50 (HOP-92): 0.27 µM

Structure (SMILES): COc1cc2c(cc1OCCCCCn1c3ccccc3c3ccccc31)N=C[C@@H]1CCCN1C2=O [Compound 6c, 7-Methoxy-8-[5-(9H-9-carbazoly)pentyloxy]-(11aS)-1,2,3,11a-tetrahydro-5H-Pyrrolo[2,1-c][1,4]benzodiazepin-5-one]
- GI50 (CCRF-CEM): 1.97 µM
- GI50 (SK-MEL-28): 1.8 µM
- GI50 (HCT-116): 1.65 µM
- GI50 (SF-268): 1.91 µM
- Log10 GI50 (CNS cancer cell lines): −5.76 mol/L
- Log10 LC50 (concentration causing 50% lethality) (CNS cancer cell lines): −4.97 mol/L
- GI50 (OVCAR-5): 2.42 µM
- GI50 (LOX IMVI): 2.08 µM
- GI50 (SNB-75): 1.05 µM
- GI50 (786-0): 1.73 µM
- GI50 (SNB-19): 2.05 µM
- GI50 (M14): 2.1 µM
- GI50 (U251): 1.59 µM
- Log10 GI50 [1]: −5.56 mol/L
- Log10 LC50 (concentration causing 50% lethality) [1]: −4.18 mol/L
- GI50 (ACHN): 1.74 µM
- GI50 (UACC-62): 1.86 µM
- GI50 (NCI-H226): 2.49 µM
- GI50 (EKVX): 5.27 µM
- GI50 (PC-3): 2.36 µM
- GI50 (SK-MEL-2): 1.67 µM
- Log10 GI50 [2]: −5.64 mol/L
- Log10 LC50 (concentration causing 50% lethality) [2]: −4.50 mol/L
- GI50 (DU-145): 2.23 µM
- GI50 (MOLT-4): 2.15 µM
- GI50 (A549/ATCC): 1.57 µM
- GI50 (HOP-92): 1.31 µM
- GI50 (K-562): 2.6 µM
- GI50 (MCF7): 2.33 µM
